Reference: ChEMBL document CHEMBL1131152, “In vitro and in vivo activities of oligodeoxynucleotide-based thrombin inhibitors containing neutral formacetal linkages” (J Med Chem, 1998)

target: Prothrombin (Homo sapiens) (UniProt P00734); assay: Relative prothrombin time was determined as the activity of the test ODN (oligodeoxynucleotide) relative to that of GS-522

Relative PT	SMILES
0.6	Cc1cn([C@H]2C[C@H](OCOC[C@H]3O[C@@H](n4cnc5c(=O)[nH]c(=N)[nH]c54)C[C@@H]3OP(=O)(O)OC[C@H]3O[C@@H](n4cnc5c(=O)nc(N)[nH]c54)C[C@@H]3O)[C@@H](COP(=O)(O)O[C@H]3C[C@H](n4cc(C)c(=O)[nH]c4=O)O[C@@H]3COP(=O)(O)O[C@H]3C[C@H](n4cnc5c(=O)[nH]c(=N)[nH]c54)O[C@@H]3COP(=O)(O)O[C@H]3C[C@H](n4cnc5c(=O)nc(N)[nH]c54)O[C@@H]3COP(=O)(O)O[C@H]3C[C@H](n4cc(C)c(=O)[nH]c4=O)O[C@@H]3COP(=O)(O)O[C@H]3C[C@H](n4cnc5c(=O)nc(N)[nH]c54)O[C@@H]3COP(=O)(O)O[C@H]3C[C@H](n4cc(C)c(=O)[nH]c4=O)O[C@@H]3COP(=O)(O)O[C@H]3C[C@H](n4cnc5c(=O)[nH]c(=N)[nH]c54)O[C@@H]3COP(=O)(O)O[C@H]3C[C@H](n4cnc5c(=O)nc(N)[nH]c54)O[C@@H]3COP(=O)(O)O[C@H]3C[C@H](n4cc(C)c(=O)[nH]c4=O)O[C@@H]3COCO[C@H]3C[C@H](n4cc(C)c(=O)[nH]c4=O)O[C@@H]3COP(=O)(O)O[C@H]3C[C@H](n4cnc5c(=O)nc(N)[nH]c54)O[C@@H]3COP(=O)(O)O[C@H]3C[C@H](n4cnc5c(=O)nc(N)[nH]c54)O[C@@H]3COP(=O)(O)O)O2)c(=O)[nH]c1=O
0.7	Cc1cn([C@H]2C[C@H](OCOC[C@H]3O[C@@H](n4cnc5c(=O)nc(N)[nH]c54)C[C@@H]3OP(=O)(O)OC[C@H]3O[C@@H](n4cnc5c(=O)[nH]c(=N)[nH]c54)C[C@@H]3OP(=O)(O)OC[C@H]3O[C@@H](n4cc(C)c(=O)[nH]c4=O)C[C@@H]3OP(=O)(O)OC[C@H]3O[C@@H](n4cnc5c(=O)[nH]c(=N)[nH]c54)C[C@@H]3OP(=O)(O)OC[C@H]3O[C@@H](n4cc(C)c(=O)[nH]c4=O)C[C@@H]3OP(=O)(O)OC[C@H]3O[C@@H](n4cnc5c(=O)nc(N)[nH]c54)C[C@@H]3OP(=O)(O)OC[C@H]3O[C@@H](n4cnc5c(=O)[nH]c(=N)[nH]c54)C[C@@H]3OP(=O)(O)OC[C@H]3O[C@@H](n4cc(C)c(=O)[nH]c4=O)C[C@@H]3OP(=O)(O)OC[C@H]3O[C@@H](n4cc(C)c(=O)[nH]c4=O)C[C@@H]3OP(=O)(O)OC[C@H]3O[C@@H](n4cnc5c(=O)[nH]c(=N)[nH]c54)C[C@@H]3OP(=O)(O)OC[C@H]3O[C@@H](n4cnc5c(=O)nc(N)[nH]c54)C[C@@H]3O)[C@@H](COP(=O)(O)O[C@H]3C[C@H](n4cc(C)c(=O)[nH]c4=O)O[C@@H]3COP(=O)(O)O[C@H]3C[C@H](n4cnc5c(=O)nc(N)[nH]c54)O[C@@H]3COP(=O)(O)O[C@H]3C[C@H](n4cnc5c(=O)nc(N)[nH]c54)O[C@@H]3COP(=O)(O)O)O2)c(=O)[nH]c1=O
0.7	Cc1cn([C@H]2C[C@H](OP(=O)(O)OC[C@H]3O[C@@H](n4cnc5c(=O)nc(N)[nH]c54)C[C@@H]3OP(=O)(O)OC[C@H]3O[C@@H](n4cnc5c(=O)[nH]c(=N)[nH]c54)C[C@@H]3OP(=O)(O)OC[C@H]3O[C@@H](n4cc(C)c(=O)[nH]c4=O)C[C@@H]3OP(=O)(O)OC[C@H]3O[C@@H](n4cnc5c(=O)[nH]c(=N)[nH]c54)C[C@@H]3OP(=O)(O)OC[C@H]3O[C@@H](n4cc(C)c(=O)[nH]c4=O)C[C@@H]3OP(=O)(O)OC[C@H]3O[C@@H](n4cnc5c(=O)nc(N)[nH]c54)C[C@@H]3OP(=O)(O)OC[C@H]3O[C@@H](n4cnc5c(=O)[nH]c(=N)[nH]c54)C[C@@H]3OP(=O)(O)OC[C@H]3O[C@@H](n4cc(C)c(=O)[nH]c4=O)C[C@@H]3OP(=O)(O)OC[C@H]3O[C@@H](n4cc(C)c(=O)[nH]c4=O)C[C@@H]3OP(=O)(O)OC[C@H]3O[C@@H](n4cnc5c(=O)[nH]c(=N)[nH]c54)C[C@@H]3OCOC[C@H]3O[C@@H](n4cnc5c(=O)nc(N)[nH]c54)C[C@@H]3O)[C@@H](COP(=O)(O)O[C@H]3C[C@H](n4cc(C)c(=O)[nH]c4=O)O[C@@H]3COP(=O)(O)O[C@H]3C[C@H](n4cnc5c(=O)nc(N)[nH]c54)O[C@@H]3COCO[C@H]3C[C@H](n4cnc5c(=O)[nH]c(=N)[nH]c54)O[C@@H]3COP(=O)(O)O)O2)c(=O)[nH]c1=O

More lines, now with the values behind:

SMILES	Relative PT
Cc1cn([C@H]2C[C@H](OCOC[C@H]3O[C@@H](n4cnc5c(=O)nc(N)[nH]c54)C[C@@H]3OP(=O)(O)OC[C@H]3O[C@@H](n4cnc5c(=O)[nH]c(=N)[nH]c54)C[C@@H]3OP(=O)(O)OC[C@H]3O[C@@H](n4cc(C)c(=O)[nH]c4=O)C[C@@H]3OCOC[C@H]3O[C@@H](n4cnc5c(=O)[nH]c(=N)[nH]c54)C[C@@H]3OP(=O)(O)OC[C@H]3O[C@@H](n4cc(C)c(=O)[nH]c4=O)C[C@@H]3OP(=O)(O)OC[C@H]3O[C@@H](n4cnc5c(=O)nc(N)[nH]c54)C[C@@H]3OP(=O)(O)OC[C@H]3O[C@@H](n4cnc5c(=O)[nH]c(=N)[nH]c54)C[C@@H]3OP(=O)(O)OC[C@H]3O[C@@H](n4cc(C)c(=O)[nH]c4=O)C[C@@H]3OP(=O)(O)OC[C@H]3O[C@@H](n4cc(C)c(=O)[nH]c4=O)C[C@@H]3OP(=O)(O)OC[C@H]3O[C@@H](n4cnc5c(=O)[nH]c(=N)[nH]c54)C[C@@H]3OP(=O)(O)OC[C@H]3O[C@@H](n4cnc5c(=O)nc(N)[nH]c54)C[C@@H]3O)[C@@H](COP(=O)(O)O[C@H]3C[C@H](n4cc(C)c(=O)[nH]c4=O)O[C@@H]3COP(=O)(O)O[C@H]3C[C@H](n4cnc5c(=O)[nH]c(=N)[nH]c54)O[C@@H]3COP(=O)(O)O[C@H]3C[C@H](n4cnc5c(=O)[nH]c(=N)[nH]c54)O[C@@H]3COP(=O)(O)O)O2)c(=O)[nH]c1=O	0.3
Cc1cn([C@H]2C[C@H](OP(=O)(O)OC[C@H]3O[C@@H](n4cnc5c(=O)nc(N)[nH]c54)C[C@@H]3OP(=O)(O)OC[C@H]3O[C@@H](n4cnc5c(=O)[nH]c(=N)[nH]c54)C[C@@H]3OP(=O)(O)OC[C@H]3O[C@@H](n4cc(C)c(=O)[nH]c4=O)C[C@@H]3OP(=O)(O)OC[C@H]3O[C@@H](n4cnc5c(=O)nc(N)[nH]c54)C[C@@H]3OP(=O)(O)OC[C@H]3O[C@@H](n4cc(C)c(=O)[nH]c4=O)C[C@@H]3OP(=O)(O)OC[C@H]3O[C@@H](n4cnc5c(=O)nc(N)[nH]c54)C[C@@H]3OCOC[C@H]3O[C@@H](n4cnc5c(=O)[nH]c(=N)[nH]c54)C[C@@H]3OP(=O)(O)OC[C@H]3O[C@@H](n4cc(C)c(=O)[nH]c4=O)C[C@@H]3OP(=O)(O)OC[C@H]3O[C@@H](n4cc(C)c(=O)[nH]c4=O)C[C@@H]3OP(=O)(O)OC[C@H]3O[C@@H](n4cnc5c(=O)[nH]c(=N)[nH]c54)C[C@@H]3OP(=O)(O)OC[C@H]3O[C@@H](n4cnc5c(=O)nc(N)[nH]c54)C[C@@H]3O)[C@@H](COP(=O)(O)O[C@H]3C[C@H](n4cc(C)c(=O)[nH]c4=O)O[C@@H]3COP(=O)(O)O[C@H]3C[C@H](n4cnc5c(=O)[nH]c(=N)[nH]c54)O[C@@H]3COP(=O)(O)O[C@H]3C[C@H](n4cnc5c(=O)nc(N)[nH]c54)O[C@@H]3COP(=O)(O)O)O2)c(=O)[nH]c1=O	0.8
Cc1cn([C@H]2C[C@H](OCOC[C@H]3O[C@@H](n4cnc5c(=O)nc(N)[nH]c54)C[C@@H]3OP(=O)(O)OC[C@H]3O[C@@H](n4cnc5c(=O)[nH]c(=N)[nH]c54)C[C@@H]3OP(=O)(O)OC[C@H]3O[C@@H](n4cc(C)c(=O)[nH]c4=O)C[C@@H]3OCOC[C@H]3O[C@@H](n4cc(C)c(=O)[nH]c4=O)C[C@@H]3OP(=O)(O)OC[C@H]3O[C@@H](n4cnc5c(=O)[nH]c(=N)[nH]c54)C[C@@H]3OP(=O)(O)OC[C@H]3O[C@@H](n4cnc5c(=O)nc(N)[nH]c54)C[C@@H]3O)[C@@H](COP(=O)(O)O[C@H]3C[C@H](n4cnc5c(=O)nc(N)[nH]c54)O[C@@H]3COCO[C@H]3C[C@H](n4cc(C)c(=O)[nH]c4=O)O[C@@H]3COP(=O)(O)O[C@H]3C[C@H](n4cnc5c(=O)[nH]c(=N)[nH]c54)O[C@@H]3COP(=O)(O)O[C@H]3C[C@H](n4cnc5c(=O)nc(N)[nH]c54)O[C@@H]3COP(=O)(O)O[C@H]3C[C@H](n4cc(C)c(=O)[nH]c4=O)O[C@@H]3COCO[C@H]3C[C@H](n4cc(C)c(=O)[nH]c4=O)O[C@@H]3COP(=O)(O)O[C@H]3C[C@H](n4cnc5c(=O)[nH]c(=N)[nH]c54)O[C@@H]3COP(=O)(O)O[C@H]3C[C@H](n4cnc5c(=O)nc(N)[nH]c54)O[C@@H]3COP(=O)(O)O)O2)c(=O)[nH]c1=O	0.5
Cc1cn([C@H]2C[C@H](OCOC[C@H]3O[C@@H](n4cnc5c(=O)nc(N)[nH]c54)C[C@@H]3OP(=O)(O)OC[C@H]3O[C@@H](n4cnc5c(=O)[nH]c(=N)[nH]c54)C[C@@H]3OP(=O)(O)OC[C@H]3O[C@@H](n4cc(C)c(=O)[nH]c4=O)C[C@@H]3OP(=O)(O)OC[C@H]3O[C@@H](n4cc(C)c(=O)[nH]c4=O)C[C@@H]3OP(=O)(O)OC[C@H]3O[C@@H](n4cnc5c(=O)[nH]c(=N)[nH]c54)C[C@@H]3OP(=O)(O)OC[C@H]3O[C@@H](n4cnc5c(=O)nc(N)[nH]c54)C[C@@H]3O)[C@@H](COP(=O)(O)O[C@H]3C[C@H](n4cnc5c(=O)[nH]c(=N)[nH]c54)O[C@@H]3COP(=O)(O)O[C@H]3C[C@H](n4cc(C)c(=O)[nH]c4=O)O[C@@H]3COP(=O)(O)O[C@H]3C[C@H](n4cnc5c(=O)[nH]c(=N)[nH]c54)O[C@@H]3COP(=O)(O)O[C@H]3C[C@H](n4cnc5c(=O)nc(N)[nH]c54)O[C@@H]3COP(=O)(O)O[C@H]3C[C@H](n4cc(C)c(=O)[nH]c4=O)O[C@@H]3COP(=O)(O)O[C@H]3C[C@H](n4cc(C)c(=O)[nH]c4=O)O[C@@H]3COP(=O)(O)O[C@H]3C[C@H](n4cnc5c(=O)nc(N)[nH]c54)O[C@@H]3COP(=O)(O)O[C@H]3C[C@H](n4cnc5c(=O)nc(N)[nH]c54)O[C@@H]3COP(=O)(O)O)O2)c(=O)[nH]c1=O	1.1
